# According to patent publication US9695155B2, “Herbicidal substituted pyrimidinyloxy benzene compounds” (E. I. DU PONT DE NEMOURS AND COMPANY, priority 2013, dated 2017):
# Assays:
# wild oat = experiment: Test C postemergence; format: in vivo, Avena fatua
# In short: (§1)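 Whole-plant greenhouse test with surfactant-containing solvent formulation, applied preemergence to sown loam–sand pots or postemergence to 2–18 cm plants. Scored by eye 13 to 15 days on, 0–100 scale.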
# morningglory [1] = experiment: Test C preemergence; format: in vivo, Ipomoea coccinea
# In short: as §1
# oilseed rape = experiment: Test C preemergence; format: in vivo, Brassica napus
# In short: as §1
# galium = experiment: Test C preemergence; format: in vivo, Galium aparine
# In short: as §1
# corn = experiment: Test C preemergence; format: in vivo, Zea mays
# In short: as §1
# blackgrass = experiment: Test C postemergence; format: in vivo, Alopecurus myosuroides
# In short: as §1
# rice = experiment: Test B flooded paddy test; format: in vivo, Oryza sativa; settings: Flood, 250 g ai/ha, 0 to 100 scale where 0 is no effect and 100 is complete control
# In short: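 Flooded to 3 cm at the 2-leaf stage, pots received compound through the paddy water and were kept at that depth under greenhouse conditions. After 13–15 days, effect was rated by eye relative to controls, 0 = none and 100 = complete control.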
# barnyardgrass = experiment: Test A preemergence; format: in vivo, Echinochloa crus-galli
# In short: (§2)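 Injury scores run from 0, no effect, to 100, complete control, judged by eye against untreated plants roughly 10 days after treatment. Chemicals carried a surfactant in a non-phytotoxic solvent and went onto loam–sand soil preemergence or onto one- to two-leaf seedlings postemergence.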
# yellow nutsedge [2] = experiment: Test C preemergence; format: in vivo, Cyperus esculentus
# In short: as §1
# morningglory [3] = experiment: Test C postemergence; format: in vivo, Ipomoea coccinea
# In short: as §1
# kochia = experiment: Test C postemergence; format: in vivo, Kochia scoparia
# In short: as §1
# yellow nutsedge [4] = experiment: Test C postemergence; format: in vivo, Cyperus esculentus; settings: Cyperus, post-emergence
# In short: as §1
# velvetleaf = experiment: Test A postemergence; format: in vivo, Abutilon theophrasti; settings: 1000 g ai/ha, 0 to 100 scale, 0 no effect, 100 complete control
# In short: as §2
# [5] = 16 g ai/ha, postemergence, 0 is no effect, 100 is complete control
# [6] = 125 g ai/ha, postemergence, visual rating, scale 0 to 100 (0 no effect, 100 complete control)
# [7] = Postemergence, 62 g ai/ha, scale 0 to 100 (0 no effect, 100 complete control)
# [8] = 16 g ai/ha, preemergence, scale 0 to 100 (0 no effect, 100 complete control)
# [9] = 62 g ai/ha, preemergence, scale 0 (no effect) to 100 (complete control)
# [10] = 125 g ai/ha, preemergence, scale 0 (no effect) to 100 (complete control)
# [11] = Preemergence, 31 g ai/ha, scale 0 to 100, 0 no effect, 100 complete control
smiles,measurement,setting,value
"FC(F)(F)COc1cnn(-c2ccccc2Oc2ncc(Cl)cn2)c1 [Compound 138, 5-chloro-2-[2-[4-(2,2,2-trifluoroethoxy)-1H-pyrazol-1-yl]phenoxy]pyrimidine]",pest or weed control at 16 g/ha,"wild oat; Avena fatua, post-emergence, 16 g ai/ha, postemergence, 0 is no effect, 100 is complete control, read-out: Plant response rating (0 to 100), Oat, Wild",5%
same,pest or weed control at 125 g/ha,"wild oat; Avena fatua, post-emergence, 125 g ai/ha, postemergence, visual rating, scale 0 to 100 (0 no effect, 100 complete control), read-out: Plant response rating, Oat, Wild",10%
same,pest or weed control at 62 g/ha,"wild oat; Avena fatua, post-emergence, Postemergence, 62 g ai/ha, scale 0 to 100 (0 no effect, 100 complete control), read-out: Plant response rating, Oat, Wild",5%
same,pest or weed control at 16 g/ha,"morningglory [1]; Ipomoea, pre-emergence, 16 g ai/ha, preemergence, scale 0 to 100 (0 no effect, 100 complete control), read-out: Morningglory plant response rating",0%
same,pest or weed control at 62 g/ha,"morningglory [1]; Ipomoea, pre-emergence, 62 g ai/ha, preemergence, scale 0 (no effect) to 100 (complete control), read-out: Morningglory plant response rating",10%
same,pest or weed control at 125 g/ha,"morningglory [1]; Ipomoea, pre-emergence, 125 g ai/ha, preemergence, scale 0 (no effect) to 100 (complete control), read-out: Morningglory plant response rating",35%
same,plant injury at 16 g/ha,"oilseed rape; Brassica napus, pre-emergence, 16 g ai/ha, preemergence, scale 0 to 100 (0 no effect, 100 complete control), read-out: Oilseed Rape plant response rating",80%
same,plant injury at 62 g/ha,"oilseed rape; Brassica napus, pre-emergence, 62 g ai/ha, preemergence, scale 0 (no effect) to 100 (complete control), read-out: Oilseed Rape plant response rating",100%
same,plant injury at 125 g/ha,"oilseed rape; Brassica napus, pre-emergence, 125 g ai/ha, preemergence, scale 0 (no effect) to 100 (complete control), read-out: Oilseed Rape plant response rating",100%
same,pest or weed control at 16 g/ha,"galium; Galium, pre-emergence, 16 g ai/ha, preemergence, scale 0 to 100 (0 no effect, 100 complete control), read-out: Galium plant response rating",90%
same,pest or weed control at 62 g/ha,"galium; Galium, pre-emergence, 62 g ai/ha, preemergence, scale 0 (no effect) to 100 (complete control), read-out: Galium plant response rating",90%
same,pest or weed control at 125 g/ha,"galium; Galium, pre-emergence, 125 g ai/ha, preemergence, scale 0 (no effect) to 100 (complete control), read-out: Galium plant response rating",100%
same,pest or weed control at 31 g/ha,"galium; Galium, pre-emergence, Preemergence, 31 g ai/ha, scale 0 to 100, 0 no effect, 100 complete control, read-out: Plant response rating, Galium",90%
same,plant injury at 16 g/ha,"corn; Zea mays, pre-emergence, 16 g ai/ha, preemergence, scale 0 to 100 (0 no effect, 100 complete control), read-out: Corn plant response rating",0%
same,plant injury at 62 g/ha,"corn; Zea mays, pre-emergence, 62 g ai/ha, preemergence, scale 0 (no effect) to 100 (complete control), read-out: Corn plant response rating",0%
same,plant injury at 125 g/ha,"corn; Zea mays, pre-emergence, 125 g ai/ha, preemergence, scale 0 (no effect) to 100 (complete control), read-out: Corn plant response rating",25%
same,"Corn plant response rating (crop injury, 0 = no effect, 100 = complete kill) at 31 g/ha","corn; Zea mays, pre-emergence, Preemergence, 31 g ai/ha, scale 0 to 100, 0 no effect, 100 complete control",0%
same,pest or weed control at 16 g/ha,"blackgrass; Alopecurus myosuroides, post-emergence, 16 g ai/ha, postemergence, 0 is no effect, 100 is complete control, read-out: Plant response rating (0 to 100), Blackgrass",0%
same,pest or weed control at 125 g/ha,"blackgrass; Alopecurus myosuroides, post-emergence, 125 g ai/ha, postemergence, visual rating, scale 0 to 100 (0 no effect, 100 complete control), read-out: Plant response rating, Blackgrass",10%
same,pest or weed control at 31 g/ha,"blackgrass; Alopecurus myosuroides, post-emergence, Postemergence, 31 g ai/ha, scale 0 to 100 (0 no effect, 100 complete control), 13 to 15 days, read-out: Plant response rating, Blackgrass",5%
same,pest or weed control at 62 g/ha,"blackgrass; Alopecurus myosuroides, post-emergence, Postemergence, 62 g ai/ha, scale 0 to 100 (0 no effect, 100 complete control), read-out: Plant response rating, Blackgrass",5%
same,plant injury at 250 g/ha,"rice; Oryza sativa, read-out: Plant response rating, Rice",0%
same,pest or weed control at 125 g/ha,"barnyardgrass; Echinochloa crus-galli, pre-emergence, 240 h, 125 g ai/ha, 0 to 100 scale where 0 is no effect and 100 is complete control, read-out: Plant response rating, Barnyardgrass",80%
same,pest or weed control at 500 g/ha,"barnyardgrass; Echinochloa crus-galli, pre-emergence, 240 h, 500 g ai/ha, 0 to 100 scale where 0 is no effect and 100 is complete control, read-out: Barnyardgrass plant response rating",100%
same,pest or weed control at 16 g/ha,"yellow nutsedge [2]; Cyperus, pre-emergence, 16 g ai/ha, preemergence, scale 0 to 100 (0 no effect, 100 complete control), read-out: Nutsedge, Yellow plant response rating",5%
same,pest or weed control at 62 g/ha,"yellow nutsedge [2]; Cyperus, pre-emergence, 62 g ai/ha, preemergence, scale 0 (no effect) to 100 (complete control), read-out: Nutsedge, Yellow plant response rating",25%
same,pest or weed control at 125 g/ha,"yellow nutsedge [2]; Cyperus, pre-emergence, 125 g ai/ha, preemergence, scale 0 (no effect) to 100 (complete control), read-out: Nutsedge, Yellow plant response rating",55%
same,pest or weed control at 16 g/ha,"morningglory [3]; Ipomoea, post-emergence, 16 g ai/ha, postemergence, 0 is no effect, 100 is complete control, read-out: Plant response rating (0 to 100), Morningglory",65%
same,pest or weed control at 125 g/ha,"morningglory [3]; Ipomoea, post-emergence, 125 g ai/ha, postemergence, visual rating, scale 0 to 100 (0 no effect, 100 complete control), read-out: Plant response rating, Morningglory",85%
same,pest or weed control at 62 g/ha,"morningglory [3]; Ipomoea, post-emergence, Postemergence, 62 g ai/ha, scale 0 to 100 (0 no effect, 100 complete control), read-out: Plant response rating, Morningglory",65%
same,pest or weed control at 16 g/ha,"kochia; Bassia scoparia, post-emergence, 16 g ai/ha, postemergence, 0 is no effect, 100 is complete control, read-out: Plant response rating (0 to 100), Kochia",80%
same,pest or weed control at 125 g/ha,"kochia; Bassia scoparia, post-emergence, 125 g ai/ha, postemergence, visual rating, scale 0 to 100 (0 no effect, 100 complete control), read-out: Plant response rating, Kochia",95%
same,pest or weed control at 62 g/ha,"kochia; Bassia scoparia, post-emergence, Postemergence, 62 g ai/ha, scale 0 to 100 (0 no effect, 100 complete control), read-out: Plant response rating, Kochia",95%
same,pest or weed control at 16 g/ha,"yellow nutsedge [4]; 16 g ai/ha, postemergence, 0 is no effect, 100 is complete control, read-out: Plant response rating (0 to 100), Nutsedge, Yellow",0%
same,pest or weed control at 125 g/ha,"yellow nutsedge [4]; 125 g ai/ha, postemergence, visual rating, scale 0 to 100 (0 no effect, 100 complete control), read-out: Plant response rating, Nutsedge, Yellow",10%
same,pest or weed control at 62 g/ha,"yellow nutsedge [4]; Postemergence, 62 g ai/ha, scale 0 to 100 (0 no effect, 100 complete control), read-out: Plant response rating, Nutsedge, Yellow",5%
N#Cc1cn(-c2c(Br)cccc2Oc2ncc(Cl)cn2)nn1 [Compound 116],"Plant response rating (0 to 100), Oat, Wild",wild oat; [5],5
same,"Plant response rating, Oat, Wild",wild oat; [6],15
same,"Plant response rating, Oat, Wild",wild oat; [7],5
same,Morningglory plant response rating,morningglory [1]; [8],0
same,Morningglory plant response rating,morningglory [1]; [9],20
same,Morningglory plant response rating,morningglory [1]; [10],20
same,"Plant response rating, Morningglory",morningglory [1]; [11],5
same,Oilseed Rape plant response rating,oilseed rape; [8],0
same,Oilseed Rape plant response rating,oilseed rape; [9],98
same,Oilseed Rape plant response rating,oilseed rape; [10],100
same,"Plant response rating, Oilseed Rape",oilseed rape; [11],5
same,Galium plant response rating,galium; [8],0
same,Galium plant response rating,galium; [9],100
same,Galium plant response rating,galium; [10],100
same,"Plant response rating, Galium",galium; [11],100
same,Corn plant response rating,corn; [8],0
same,Corn plant response rating,corn; [9],5
same,Corn plant response rating,corn; [10],25
same,"Plant response rating, Corn",corn; [11],0
same,"Plant response rating (0 to 100), Blackgrass",blackgrass; [5],0
same,"Plant response rating, Blackgrass",blackgrass; [6],25
same,"Plant response rating, Blackgrass","blackgrass; Postemergence, 31 g ai/ha, scale 0 to 100 (0 no effect, 100 complete control), 13 to 15 days",5
same,"Plant response rating, Blackgrass",blackgrass; [7],10
same,"Plant response rating, Rice",rice,0
same,"Plant response rating, Barnyardgrass","barnyardgrass; 1000 g ai/ha, 0 to 100 scale, 0 no effect, 100 complete control",90
same,"Nutsedge, Yellow plant response rating",yellow nutsedge [2]; [8],0
same,"Nutsedge, Yellow plant response rating",yellow nutsedge [2]; [9],10
same,"Nutsedge, Yellow plant response rating",yellow nutsedge [2]; [10],40
same,"Plant response rating, Nutsedge, Yellow",yellow nutsedge [2]; [11],5
same,"Plant response rating (0 to 100), Morningglory",morningglory [3]; [5],50
same,"Plant response rating, Morningglory",morningglory [3]; [6],80
same,"Plant response rating, Morningglory",morningglory [3]; [7],60
same,"Plant response rating (0 to 100), Kochia",kochia; [5],70
same,"Plant response rating, Kochia",kochia; [6],95
same,"Plant response rating, Kochia",kochia; [7],90
same,"Plant response rating, Velvetleaf",velvetleaf,100
